Assay results from patent US12383526B2, “Optimized sigma-1 agonist method of responder selection and treatment” (ANAVEX LIFE SCIENCES CORP., priority 2018, dated 2025).
Marks after values point to notes of the source that are not given here.

What was measured:
[1] = tested on: subjects with mild-to-moderate AD; test: MMSE (Mini Mental State Examination) change from baseline, 57-week Phase 2a study and 208-week extension study; format: in vivo, human; conditions: for MMSE Cohen's d: week 57, compared to standard of care
Text: The present study integrates and analyzes data and samples from two consecutive clinical trials: 57-week study and 208-week study. 57-week study was a multicenter Phase 2a clinical trial of the drug ANAVEX2-73 that recruited a sample of 32 subjects with mild-to-moderate AD. It consisted of two parts: Part A was a simple randomized, open-label, two-period, cross-over, adaptive trial lasting up to 5 weeks. Each period involved one specific administration route and two possible dose levels: in one period the oral dose (30 mg or 50 mg) was administrated and in the other period an intravenous (IV) form (3 mg or 5 mg) was administered, making a total of 8 possible dose administration schemes in Part A (details available in FIG. 2A). The two periods were separated by a wash-out period of 12 days where no dose was given.
Part B, following immediately after Part A, was an open-label extension of the oral daily dose for an additional 52 weeks. The primary endpoint of 57-week study was to establish the safety and tolerability of the drug. Secondary endpoints aimed at establishing the relationship between dosing regimen and pharmacodynamics-exploratory efficacy outcomes of cognition and function. Cognition was assessed by the Mini Mental State Examination (MMSE), while functional abilities by the Alzheimer's Disease Co-operative Study—Activities of Daily Living Inventory (ADCS-ADL). Additional cognitive measures included the Cogstate Brief Battery (CBB), and functional measures of Electroencephalography and Event-Related Potential (EEG and ERP). Part B continued an adaptive oral administration scheme. Table 12 summarizes mean oral dose administration during the 57-week study study.
Due to favorable safety and tolerability profile of the 57-week study (Table 2), and in response to requests from patients and caregivers, a 208-week open-label extension study (208-week study) was carried out immediately after completion of 57-week study Part B. 208-week study enrolled the 24 subjects who completed Part B and applied similarly an adaptive daily oral administration scheme. ANAVEX2-73-003 involves continuous evaluation of safety and efficacy as measured by the MMSE and ADCS-ADL. At week 148 (interim time point for analyses), data on the subjects remaining in the study (n=21) was analyzed for efficacy outcomes. This report was drafted using data available at week 148, while ANAVEX2-73-003 is still ongoing.
Exploratory clinical efficacy in this study was defined as change from baseline of each patient's cognitive (MMSE) and functional ability (ADCS-ADL) scores. The MMSE57 is a widely used, validated instrument in clinical AD research, including as a cognitive outcome measure in drug trials. The range of the scale is from 0 to 30, with a higher score indicating higher cognitive function. The ADCS-ADL58 is undertaken in a structured caregiver interview format and assesses performance in activities of daily living of patients with AD. The scale is from 0 to 78, with a higher score indicating greater function. The ADCS-ADL has shown to have good test-retest reliability 59. The MMSE and the ADCS-ADL were assessed during pre-specified clinical site visits across 14 different time points during the 57-week study (Weeks 0 and 5 in Part A; Weeks 17, 31, 41, 53, and 57 in Part B), and 208-week study (Weeks 70, 83, 96, 109, 122, 135, and 148) studies.
Corresponding Delta scores were calculated using the difference between values at each visit and at baseline for each individual patient, with a focus on Week 57. In addition, to lower the impact of noise in MMSE and ADCS-ADL scores, a Slope was estimated using a linear regression across all available time points for each individual patient. The derived scores describe the progression of exploratory efficacy data from baseline at several specific time points (Deltas) and over a set period of time (Slope). […]

[2] = tested on: Alzheimer's disease / dementia patients; test: Sigma-1 agonist responder determination and therapy, single-patient examples 6-13; format: in vivo, human; conditions: 6 months
Method: A person presents with diagnosed Alzheimer's disease. Their SIGMAR1 gene is analyzed to the extent that it is determined that they carry glutamine at the 2 position of the SIGMAR1 gene. This is the wildtype. They are treated with A2-73 daily with a 30 mg oral dose. For 6 months.
A person presents with diagnosed Alzheimer's disease. A cheek swab is taken and a genotype assay is performed to determine the presence of the SIGMAR1 2P genotype. By such analysis it is determined that the subject carries glutamine at the 2 position of the SigmaR1 gene receptor (protein). They are treated with ANAVEX2-73 daily with a 30 mg oral dose. For 6 months.
A person presents with diagnosed dementia. Their SIGMAR1 gene is analyzed to the extent that it is determined that they carry proline at the 2 position of the SIGMAR1 gene. They are treated with ANAVEX2-73 daily with a 80 mg oral dose in combination with 1.5 mg oral rivastigmine twice per day for 6 months.
A person presents with diagnosed Alzheimer's disease. […] They are treated with the A2-73 daily with a 30 mg oral dose. For 6 months.
A person presents with diagnosed Alzheimer's disease. […] They are treated with A2-73 daily with a 30 mg oral dose. For 6 months.
A person presents with diagnosed dementia. They carry glutamine at the 2 position of the SIGMAR1 gene. It is determined that they carry the KANSL1_p.P1010L/P304L/P946L mutation. They are treated with ANAVEX2-73 daily with a 70 mg oral dose in combination with 7 mg oral memantine daily for 6 months.

[3] = Absence of COMT_L146fs variant & Baseline MMSE ≥20, N 11
[4] = Absence of COMT_L146fs variant, N 16
[5] = Absence of SIGMAR1_Q2P variant, N 16
[6] = Absence of SIGNAR1_Q2P variant & Baseline MMSE ≥20, N 11

## CN(C)CC1CCOC1(c1ccccc1)c1ccccc1.Cl (stereo not shown) [ANAVEX2-73, tetrahydro-N,N-dimethyl-2,2-diphenyl-3-furanmethanamine hydrochloride]
[1]; [3]
  MMSE Mean Δ at 57 weeks: 0.18 ± 4.35
  MMSE Cohen's d: 0.98**
[1]; [4]
  MMSE Mean Δ at 57 weeks: −0.62 ± 4.05
  MMSE Cohen's d: 0.81**
[1]; Absence of SIGMAR1_Q2P variant & Absence of COMT_L145fs variant & Baseline MMSE ≥20, N 10
  MMSE Mean Δ at 57 weeks: 0.50 ± 4.45
[1]; [5]
  MMSE Mean Δ at 57 weeks: −0.62 ± 4.11
  MMSE Cohen's d: 0.81**
[1]; [6]
  MMSE Mean Δ at 57 weeks: 0.27 ± 4.29
  MMSE Cohen's d: 1.01**
[1]; All, N 21
  MMSE Mean Δ at 57 weeks: −1.52 ± 4.15
[1]; Baseline MMSE ≥20, N 13
  MMSE Mean Δ at 57 weeks: −0.15 ± 4.06
  MMSE Cohen's d: 0.94**
[1]; MMRM-LME, over 148 weeks
  favorable difference in adjusted MMSE, higher concentration arm compared with low/medium arm: 78%
[2]; Example 6: person, Alzheimer's disease, glutamine at the 2 position of SIGMAR1, 30 mg oral daily
  disease course: stable and not progress
[2]; Example 7: person, Alzheimer's disease, glutamine at the 2 position (cheek swab genotype assay), 30 mg oral daily
  disease course: stable and not progress
[2]; Example 9: person, dementia, proline at the 2 position of SIGMAR1, 80 mg oral daily in combination with 1.5 mg oral rivastigmine twice per day
  disease course: stable and not progress
[2]; Example 10: person, Alzheimer's disease, no COMT rs113895332/rs61143203 mutation, 30 mg oral daily
  disease course: stable and not progress
[2]; Example 11: person, Alzheimer's disease, no SIGMAR1 rs1800866, 30 mg oral daily
  disease course: stable and not progress
[2]; Example 13: person, dementia, glutamine at the 2 position, KANSL1_p.P1010L/P304L/P946L mutation, 70 mg oral daily in combination with 7 mg oral memantine daily
  disease course: stable and not progress
